The values that follow come from US20240210412A1, “SULFONYL-TRIAZOLE COMPOUNDS USEFUL AS LIGANDS AND INHIBITORS OF PROSTAGLANDIN REDUCTASE 2” (University of Virginia Patent Foundation, priority 2021, published 2024).

The structures appear in SMILES notation. Entries after “also recorded” stand apart in the source; their conditions may differ.

One test deals with T1, PTGR2 (Homo sapiens, UniProt Q8N8N7).
T1 construct: host or cells: HEK293T
The test can be described thus: gel-based ABPP, HHS-475 probe, HEK293T cells expressing recombinant PTGR2. The class given is cell-based. Conditions: live HEK293T cells, ligand 25 μM or varying, 2 h; HHS-475 100 μM. Here is the method: HEK293T cells at 30-50% confluency were transfected with 2.6 μg of FAH or PTGR2 plasmid DNA in a serum-free media/polyethyleneimine solution for 48 hrs. The cells were washed once with warm, sterile DPBS (1×, 5 mL), and then 10 mL of serum-free media (supplemented with 1% L-glutamine) containing either DMSO or SuTEx fragment (in DMSO) was added. After 2 hrs, the cells were treated with 100 μM of SuTEx alkyne probe (HHS-475, 10 μL of 1000× DMSO stock) and incubated for an additional 2 hrs. The media was aspirated and cells washed with cold PBS (5 mL) and harvested. Cells were spun at 500×g for 5 min at 4° C. and supernatant was removed. Pellets were resuspended in 1 mL of cold DPB S and spun at 1,400×g for 3 min at 4° C. and supernatant was removed. The cells were lysed in PBS by sonication and fractionated (100,000×g, 45 min, 4° C.). The soluble fraction was diluted to 1 mg/mL in PBS and 49 μL was used for analysis. […] The samples were analyzed by SDS-PAGE (30 μL) and imaged by in-gel fluorescence scanning.
Confirmatory studies were also performed on prostaglandin reductase 2 (PTGR2) because of its role in the reduction of the bioactive lipid, 15-keto-PGE2^[17]. […] The remaining fluorescent signal detected on PTGR2 Y100F mutant protein is likely due to probe labeling of additional tyrosine sites identified on wild-type protein.
To assess the PTGR2 inhibitory activity of AMC-0702 and AMC-0703, HEK293T cells expressing PTGR2 were pretreated with vehicle, HHS-0101 (25 μM), HHS-0701 (25 μM), AMC-0702 (25 μM-0.1 μM), or AMC-0703 (25 μM-0.1 μM) for 2 hours followed by HHS-475 probe labelling in live cells (25 μM, 2 hours). Cells were lysed and probe-modified PTGR2 in proteomes detected by copper-catalyzed azide-alkyne cycloaddition conjugation of rhodamine-azide, SDS-PAGE, and in-gel fluorescence scanning. Inhibitory activity of compounds is determined by reductions in fluorescent band intensity from HHS-475 probe labeling of proteins detected in proteomes. […]

A further test relates to O15523. The test can be described thus: SILAC LC-MS ABPP. The format is cell-based, human. Conditions: 25 μM 2 h, live DM93 cells. Here is the method: Cells were grown to 90-95% confluence before being washed once with warm, sterile DPBS (1×, 5 mL), followed by addition of 10 mL of serum-free media (supplemented with 1% L-glutamine) containing either DMSO or SuTEx fragment (in DMSO) was added. Light cells were treated with DMSO vehicle while the heavy cells were treated with DMSO or SuTEx fragment (in DMSO) and incubated for 2 hrs. After 2 hrs, the cells were treated with SuTEx alkyne probe (HHS475, 10 μL of 1000× DMSO stock) and incubated for an additional 2 hrs. The media was aspirated and cells washed with cold PBS (5 mL) and harvested. Cells were spun at 500×g for 5 min at 4° C. followed by removal of supernatant. Pellets were resuspended in 1 mL of cold DPBS and spun at 1,400×g for 3 min at 4° C. followed by removal of supernatant. The cells were lysed in PBS by sonication and fractionated (100,000×g, 45 min, 4° C.).The light and heavy soluble fractions were diluted to 2.3 mg/mL in PBS and 432 μL were used for analysis (1 mg total protein). The probe-modified proteomes were conjugated to desthiobiotin-PEG3-azide (10 μl of 10 mM stock in DMSO; 200 μM final concentration) using TCEP (10 μl of fresh 50 mM stock in water, 1 mM final concentration), TBTA ligand (33 μl of a 1.7 mM 4:1 t-butanol/DMSO stock, 100 μM final concentration) and CuSO4 (10 μl of 50 mM stock, 1 mM final concentration). Samples were vortexed to mix and incubated for 1 hr at room temperature. The heavy and light proteomes were mixed 1:1 and the subsequent steps, including LC-MS/MS data analysis, were performed as previously described^[8a].
Coupling cell-based screens with chemical proteomics can facilitate the identification of target protein and binding sites that engage and are irreversibly modified by covalent ligands^[12]. In these assays, covalent ligands block SuTEx activity-based probe (ABP) labeling at protein sites, and the competition of probe labeling can be used to quantify potency and selectivity across the proteome^[10a]. To facilitate quantitative chemical proteomics, DM93 melanoma cells were cultured using stable isotopic labeling by amino acids in cell culture (SILAC)^[13]. Cells cultured in “light” media were treated with dimethyl sulfoxide (DMSO) vehicle while cells cultured in “heavy” media were treated with SuTEx ligand (25 μM, 2 hours, 37° C.). Next, cells were treated with HHS-475 probe (100 μM, 2 hours, 37° C.) followed by lysis and processing of proteomes for analysis. Probe-modified proteins from the soluble fraction were conjugated to a desthiobiotin-azide tag by copper-catalyzed azide-alkyne cycloaddition (CuAAC)^[14] followed by mixing of the light and heavy proteomes. The combined proteomes were digested with trypsin protease to produce probe-modified peptides, followed by enrichment and purification by avidin affinity chromatography. Probe-modified peptides were resolved, identified, and quantified by high-resolution liquid chromatography-tandem mass spectrometry (LC-MS/MS). Resultant data were analyzed as previously described^[8a, 10a]. Table 2, below, lists sites of modification targeted by sulfonyl-triazole compounds HHS-0101, HHS-0201, HHS-0301, HHS-0401, and HHS-0701. The format of the table is as follows: protein Uniprot accession number (see uniprot.org); tyrosine site (amino acid position) modified; treatment (sulfonyl-triazole compound identification number, followed by Y (where if multiple compounds modify the same site, the compounds are separated by vertical lines).

The target in test [1] is T2, P16930 (fumarylacetoacetase, FAH) (Homo sapiens, UniProt P16930).
T2 construct: endogenous in cells; host or cells: DM93 (SILAC)
T2 sequence (P16930 whole entry): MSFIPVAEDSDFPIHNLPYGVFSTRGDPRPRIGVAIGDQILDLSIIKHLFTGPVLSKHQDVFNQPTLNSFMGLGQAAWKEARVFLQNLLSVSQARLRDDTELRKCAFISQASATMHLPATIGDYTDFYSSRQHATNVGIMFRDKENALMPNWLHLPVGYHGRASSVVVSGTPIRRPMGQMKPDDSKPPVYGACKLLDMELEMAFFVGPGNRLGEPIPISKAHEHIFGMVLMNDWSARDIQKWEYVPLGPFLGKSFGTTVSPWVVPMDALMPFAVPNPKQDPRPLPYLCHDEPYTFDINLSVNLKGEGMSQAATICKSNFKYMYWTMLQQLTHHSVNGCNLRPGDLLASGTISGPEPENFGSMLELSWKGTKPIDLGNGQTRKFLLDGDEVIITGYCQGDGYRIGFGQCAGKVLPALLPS
The test can be described thus: SILAC LC-MS ABPP. The class given is cell-based. The procedure: Cells were grown to 90-95% confluence before being washed once with warm, sterile DPBS (1×, 5 mL), followed by addition of 10 mL of serum-free media (supplemented with 1% L-glutamine) containing either DMSO or SuTEx fragment (in DMSO) was added. Light cells were treated with DMSO vehicle while the heavy cells were treated with DMSO or SuTEx fragment (in DMSO) and incubated for 2 hrs. After 2 hrs, the cells were treated with SuTEx alkyne probe (HHS475, 10 μL of 1000× DMSO stock) and incubated for an additional 2 hrs. The media was aspirated and cells washed with cold PBS (5 mL) and harvested. Cells were spun at 500×g for 5 min at 4° C. followed by removal of supernatant. […]
Coupling cell-based screens with chemical proteomics can facilitate the identification of target protein and binding sites that engage and are irreversibly modified by covalent ligands^[12]. In these assays, covalent ligands block SuTEx activity-based probe (ABP) labeling at protein sites, and the competition of probe labeling can be used to quantify potency and selectivity across the proteome^[10a]. To facilitate quantitative chemical proteomics, DM93 melanoma cells were cultured using stable isotopic labeling by amino acids in cell culture (SILAC)^[13]. […] Probe-modified peptides were resolved, identified, and quantified by high-resolution liquid chromatography-tandem mass spectrometry (LC-MS/MS). […]

T1 sequence (Q8N8N7 whole entry): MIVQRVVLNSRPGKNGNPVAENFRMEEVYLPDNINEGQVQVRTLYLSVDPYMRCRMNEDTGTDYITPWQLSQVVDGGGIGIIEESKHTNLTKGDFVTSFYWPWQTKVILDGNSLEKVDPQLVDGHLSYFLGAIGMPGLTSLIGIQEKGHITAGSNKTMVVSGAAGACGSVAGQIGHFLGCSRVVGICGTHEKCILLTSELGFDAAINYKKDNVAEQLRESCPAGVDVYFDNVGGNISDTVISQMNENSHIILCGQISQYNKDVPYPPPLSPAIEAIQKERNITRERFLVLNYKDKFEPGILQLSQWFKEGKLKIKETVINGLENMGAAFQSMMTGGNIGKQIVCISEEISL

On to `O=C(c1ccc(S(=O)(=O)n2cncn2)cc1)N1CCC(c2ccccc2)CC1` [HHS-0701, (4-((1H-1,2,4-triazol-1-yl)sulfonyl)phenyl)(4-phenylpiperidin-1-yl)methanone], for which the “blockade of HHS-475 labeling of PTGR2” value at PTGR2 is given as “could block HHS-475 labeling of PTGR2; also recorded: concentration-dependent blockade of probe labeling”.

Take `O=C(NCc1ccccc1)c1ccc(S(=O)(=O)n2cncn2)cc1` [HHS-0401, 4-((1H-1,2,4-triazol-1-yl)sulfonyl)-N-benzylbenzamide]: the “liganded tyrosine site 264” value with O15523 is on record as “HHS0401.Y (tyrosine sites that showed >80% reductions (SR >5) in probe labeling in cells treated with compounds (liganded sites))”. Besides, in test [1] (live DM93 cells treated with ligand), the “FAH Y244 site liganded” value is on record as over 90%.

On to `O=C(NC1CC1)c1ccc(S(=O)(=O)n2cncn2)cc1` [HHS-0101, 4-((1H-1,2,4-triazol-1-yl)sulfonyl)-N-cyclopropylbenzamide], for which, at PTGR2, the “blockade of HHS-475 labeling of PTGR2” value is listed as “not”. Besides, in test [1] (25 μM 2 h, live DM93 cells), the “liganded tyrosine site 244” value is given as “HHS0101.Y|HHS0201.Y|HHS0301.Y|HHS0401.Y|HHS0701.Y (tyrosine sites that showed >80% reductions (SR >5) in probe labeling in cells treated with compounds (liganded sites))”.
